Reference: patent US12110523B2, “Reagents and methods for esterification” (Wisconsin Alumni Research Foundation, priority 2015, dated 2024)

Key:
RNase A = molecular target: T1, RNase A (Bos taurus, UniProt P61823); conditions: at 10 eq; of eleven carboxylates; cited from earlier work
T1 sequence (P61823 27-150): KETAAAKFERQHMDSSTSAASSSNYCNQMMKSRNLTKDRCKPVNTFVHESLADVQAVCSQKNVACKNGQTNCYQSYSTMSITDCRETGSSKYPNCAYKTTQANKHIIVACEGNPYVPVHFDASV

[1] = acetonitrile and acetonitrile/aqueous buffer (3:1 v/v); cited from earlier work
CHO K1 cells = assay: Internalization of esterified GFP by CHO K1 cells (flow cytometry, confocal microscopy); format: cell-based, Chinese hamster; conditions: 15 μM GFP, 37° C., 2 h, versus unlabeled GFP
Excerpt: FIG. 8 is a graph showing quantification of internalization of labeled versus unlabeled GFP by CHO K1 cells using flow cytometry measuring median fluorescence intensity. Single cells were sorted based on forward scatter-side scatter measurements, and live cells were sorted using 7AAD (7-amino-actinomycin D) stain.
FIGS. 9A-C illustrate microscopy images of uptake of esterified GFP (green) by CHO K1 cells. FIG. 9A: Not esterified. FIG. 9B: Esterified with α-diazo-4-methylphenyl-N-propargylacetamide. FIG. 9C: Esterified with α-diazo-4-methylphenyl-N,N-dimethylacetamide. Cell nuclei are stained with Hoechst 33342 (blue).
Chinese hamster ovary (CHO) K1 cells were incubated at 37° C. for 2 h in F-12K medium (which was supplemented with penicillin/streptomycin) containing either unlabeled or labeled GFP (15 μM). […] Individual cells were imaged by confocal microscopy for two of the diazo compounds.

[2] = measured in dimethylsulfoxide; cited from earlier work

In the case of `[N-]=[N+]=C1c2ccccc2-c2ccccc21` [9-diazofluorene], the “average number of carboxylates labeled in RNase A” value (RNase A) is listed as “three” and the “formation of the desired ester with carboxylic acids” value [1] is listed as “gave the desired ester in aqueous medium”.

In the case of `CNC(=O)C(=[N+]=[N-])c1ccc(C)cc1` [Diazo compound 11, α-diazo-4-methylphenyl-N-methylacetamide], the “uptake of GFP esterified with the diazo compound into CHO K1 cells” value (CHO K1 cells) is reported as “enhanced”.

With `Cc1ccc(C(=[N+]=[N-])C(=O)N(C)C)cc1` [Diazo compound 12, α-diazo-4-methylphenyl-N,N-dimethylacetamide] the “uptake of GFP esterified with the diazo compound into CHO K1 cells” value (CHO K1 cells) was “enhanced”.

For `CCOC(=O)C(=[N+]=[N-])C(=O)OCC` [diethyl 2-diazomalonate], the “formation of the desired ester with carboxylic acids” value [1] is listed as “unreactive”.

In the case of `CCOC(=O)CC(=O)OCC` [diethylmalonate], the pKa [2] is given as 16.4.
